Assay results reported in patent US20160168185A1 (BAYLOR COLLEGE OF MEDICINE, priority 2013, published 2016).
Like-named read-outs stand apart in the source and are kept apart here. Each block holds one compound with its values, some of them ahead of it.

Columns and labels:
panel of other HMTs = test: Activity against a panel of other HMTs
[1] = system: H3K79 methylation in MV4-11 cells; test: cells; conditions: Homo sapiens, MV4-11, 96 h, read-out: IC50 of H3K79 methylation inhibition
[2] = Human plasma stability assay; assay type: in vitro ADME
Method: For human plasma stability assay, to human plasma (500 μL) was added a test compound to a final concentration of 5 μM and incubated at 37° C. at approximately 60 rpm on an orbital shaker. Aliquots of 50 μL were taken from the reaction solution at 0, 15, 30, 45 and 60 minutes. The reaction was stopped by the addition of 6 volumes of cold acetonitrile. Samples were centrifuged at 20,000 g for 15 minutes to precipitate protein. An aliquot of 150 μL of the supernatant was used to determine the remaining amount of the test compound, using the same LC/MS/MS method described above. All experiments were performed in duplicate.

[3] = system: histone methyltransferases CARM1, PRMT1 and SUV39H1
[4] = system: claudin-1, -3, E-cadherin, Snail1, Zeb1, Zeb2 expression in MDA-MB231; test: qPCR of cell-cell adhesion and EMT gene expression in MDA-MB231; assay type: cell-based
From the text: Fourth, qPCR was used to find if treatment with SYC-522 affects gene expression of cell-cell adhesion and EMT genes. […].

[5] = Human liver microsome stability assay; assay type: in vitro ADME
MDA-MB231 = test: Apoptosis of MDA-MB231, FACS with Annexin-V assay; conditions: 10-day treatment
[6] = system: MV4-11 MLL leukemia mouse model; conditions: cited from earlier work
[7] = continuous infusion, subcutaneously implanted osmotic pump; cited from earlier work

Compound: CNc1ncnc2c1ncn2[C@@H]1O[C@H](CSCC[C@H](N)C(=O)O)[C@@H](O)[C@H]1O [compound 24, N6-methyl-SAH]
activity against a panel of other HMTs in words (panel of other HMTs): inactive

Compound: CC(C)N(CCCNC(=O)Nc1ccc(C(C)(C)C)cc1)CC1=C[C@@H](n2cnc3c(N)ncnc32)[C@H](O)[C@@H]1O [compound of Formula VII, 1-(3-((((3R,4S,5R)-3-adenosyl-4,5-dihydroxycyclopent-1-en-1-yl)methyl)-(isopropyl)amino)propyl)-3-(4-(tert-butyl)phenyl)urea]
IC50 [1]: ~200 nM
stability in human plasma in words [2]: stable
activity against CARM1, PRMT1 and SUV39H1 (other HMTs) in words [3]: no activity

Compound: Nc1ncnc2c1ncn2[C@@H]1O[C@H](CSCC[C@H](N)C(=O)O)[C@@H](O)[C@H]1O [SAH, S-(5′-adenosyl)-L-homocysteine, reference compound]
activity against CARM1, PRMT1 and SUV39H1 (other HMTs) in words [3]: broad activity

metabolic stability in human liver microsomes in words [5]: quickly degraded
Compound: CC(C)N(CCCNC(=O)Nc1ccc(C(C)(C)C)cc1)C[C@H]1O[C@@H](n2cnc3c(N)ncnc32)[C@H](O)[C@@H]1O [SYC-522]
Zeb1 and Zeb2 expression [4]: unchanged or slightly increased
expression of Snail1 [4]: large decreased expression
increase of the expression of claudin-1, -3 and E-cadherin ([4]; dose-dependent): ≤ 3.9 fold
apoptosis of MDA-MB231 at 2 μM (MDA-MB231; 2 μM): negligible apoptosis
apoptosis of MDA-MB231 at 10 μM (MDA-MB231; 10 μM): 18.4%

Compound: CC(C)N(CCCNC(=O)Nc1ccc(C(C)(C)C)cc1)C[C@H]1O[C@@H](n2ccc3c(N)ncnc32)[C@H](O)[C@@H]1O [EPZ004777]
in vivo efficacy in MLL leukemia mouse model in words [6]: weak in vivo activity
in vivo efficacy in MLL leukemia mouse model in words ([6]; listed as Compound 1): relatively weak in vivo efficacy
stable plasma drug concentration [7]: ~0.5 µM
